Data as given in the METLIN SMRT retention time set (Domingo-Almenara et al. 2019).

Test: gradient 5% acetonitrile 3 min, to 50% in 2 min, to 85% in 15 min, held 3 min, 100 µL/min
Conditions: column: Zorbax Extend-C18 2.1 x 50 mm; eluents: water / acetonitrile, 0.1% formic acid
Method in brief: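 In both positive and negative ionization mode, a quadrupole time-of-flight mass spectrometer coupled to HPLC analyzed pure standards run in mixtures of ~100 molecules. The Zorbax Extend-C18 column (2.1 × 50 mm, 1.8 μm) was operated at 100 μL/min with water and acetonitrile, each containing 0.1% formic acid. The dead volume was 40 μL and the dwell volume 900 μL. Retention time came from adduct peaks that were computationally picked and individually inspected by hand.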

| RP-LC retention time [s] | Compound |
| --- | --- |
| 579 | Cc1ccnc(N2CCC(C(=O)NCCCN3CCCC3=O)CC2)n1 |
| 597 | O=S(=O)(c1cc(-c2nnc(C3CC3)o2)co1)N1CCC(N2CCCCC2)CC1 |
| 782 | CCOC(=O)CC(NC(=O)N1CCC2(CC1)NC(=O)c1ccccc1O2)c1ccccc1 (stereo unspecified) |
| 842 | O=S(=O)(Nc1ccc2c(c1)OCCO2)c1ccc(-c2nnc(C3CCC3)o2)o1 |
| 981 | Cc1ccc(CC(=O)Nc2cc(-c3nnc(C4CC4)o3)sc2C)cc1 |
| 1000 | CC1(C(=O)NCc2ccc(F)cc2)CCN(S(=O)(=O)c2ccc(Br)cc2)CC1 |
| 824 | CCN(CC)C(=O)N1CC(Oc2ccc(-c3nc(C)no3)cc2)C1 |
| 850 | O=C(CSc1nnc(-c2ccc3c(c2)OCCO3)o1)N1CCN(c2ccccc2)CC1 |
| 980 | COC(=O)C1=CN(C2CC2)c2cc(N3CCCCCC3)c(F)cc2S1(=O)=O |
| 981 | COc1ccccc1-c1nnc(-c2cccc(S(=O)(=O)N3CCCCC3)c2)o1 |
| 552 | Fc1ccc(CN2CCC(Cc3nc(-c4ccncc4)n[nH]3)C2)c(F)c1 (stereo unspecified) |
| 1030 | CC(C)Cn1c(=O)c2cc(C(=O)NCc3cc(F)ccc3F)nn2c2ccccc21 |
| 643 | Cc1ccc(CNC(=O)CSc2ccc(N3CCCC(C(=O)NC4CC4)C3)nn2)cc1 (stereo unspecified) |
| 830 | CNC(=O)c1cc(COc2ccc(NC(=O)c3ccc(Br)cc3)cc2)on1 |
| 866 | COc1ccc(C(C)NC(=O)Cn2c(C)cc(-c3nnc(C4CCC4)o3)c2C)cc1 (stereo unspecified) |
| 744 | CN1c2cc(F)ccc2C(=O)NC12CCN(C(=O)c1ccc(F)cc1)CC2 |
| 804 | Cc1ccccc1Nc1c(-c2ccc(Cl)cc2)nc2ccccn12 |
| 740 | CCNC(=O)c1nnn(-c2cccc(Cl)c2)c1-c1cccnc1 |
| 658 | CC(=O)N1CCC(C(=O)N2CCCCCCN(C)C(=O)[C@@H]3CCC[C@@H]32)CC1 |
| 841 | Cc1ccc(F)cc1NC(=O)Cn1c(=O)nc(N2CCCCC2)c2ccccc21 |
| 816 | Cc1ccc(Cn2nccc2NC(=O)c2cc(=O)c3ccccc3o2)cc1 |
| 1190 | O=C(NCc1ccccc1C(F)(F)F)c1ccnc(N2CCCCC2)n1 |

| RP-LC retention time [s] | Compound |
| --- | --- |
| 640 | CCOc1ccc(C(C)NC(=O)c2cn3c(n2)CN(CC(C)C)CC3)cc1 (stereo unspecified) |
| 565 | CCCCc1ccc(NC(=O)N2CCC3(C2)c2nc[nH]c2CCN3C)cc1 (stereo unspecified) |
| 812 | CC(C)n1nc(CNC(=O)C2CCC2)c2ccccc21 |
| 994 | Cc1ccc(-c2ncc(C(=O)Nc3ccc(Br)cc3)c(-c3ccncc3)n2)cc1 |
| 560 | NS(=O)(=O)c1ccc(CNC(=O)c2coc(NC(=O)c3cnccn3)n2)cc1 |
| 1140 | COc1cccc(NS(=O)(=O)c2cccc(-c3nc(-c4ccccc4)no3)c2)c1 |
| 596 | O=C(c1cccnc1)N1CCCCC1c1nncn1-c1ccccc1 (stereo unspecified) |
| 740 | CCCCCNC(=O)C1CC(=O)N(CCc2c[nH]c3ccc(Cl)cc23)C1 (stereo unspecified) |
| 626 | CN1C(=O)C(CC(=O)N2CCCC2)Sc2ncccc21 (stereo unspecified) |
| 667 | Cc1nn(-c2ccc(N3CCCCC3)nn2)c(C)c1CCC(=O)NCc1ccco1 |
| 727 | O=C(Cn1nc2c(N3CCCCCC3)nccn2c1=O)Nc1ccccc1C(F)(F)F |
| 845 | CCc1nnc2ccc(-c3noc(-c4c(F)cccc4F)n3)cn12 |
| 699 | O=C(CN1CCc2[nH]c3c(F)c(Cl)ccc3c(=O)c2C1)Nc1cc(F)cc(F)c1 |
| 1240 | CCC1CN(S(=O)(=O)c2cc(-c3cc(C)no3)cs2)c2cc(Cl)ccc2O1 (stereo unspecified) |
| 647 | Cc1cccc(NC(=O)N2CC(F)(F)C[C@H]2CN2CCCC2)c1C |
| 731 | Cc1nc(-c2ccc(C(=O)NC(C)C)cc2)cs1 |
| 891 | O=C(NC1CCCCC1)C1CCc2sc(C(=O)N3CCCCC3)cc2C1 (stereo unspecified) |
| 703 | CCOC(=O)c1c(C)[nH]c(NC(=O)N2CCN(c3ccc(OC)cc3)CC2)c1C |
| 608 | CN1C(=O)c2ccccc2C(C(=O)N2CCN(c3ccccn3)CC2)C1c1cccs1 (stereo unspecified) |
| 819 | Cc1ccn2c(Nc3ccccc3C)c(-c3cccc(Br)c3)nc2c1 |
| 905 | COc1ccc(S(=O)(=O)N2CCCC(c3nnnn3-c3ccccc3)C2)cc1 (stereo unspecified) |
| 750 | CCC(=O)N1CCc2cc(N3CC(C(=O)Nc4cccc(OC)c4)CC3=O)ccc21 (stereo unspecified) |

| RP-LC retention time [s] | Compound |
| --- | --- |
| 1080 | Cc1cc(-c2c(C)sc(C)c2S(=O)(=O)Nc2ccc(C)c(F)c2)n[nH]1 |
| 902 | O=C(NCc1ccccc1)C1CCCN(c2nc3ccsc3c(=O)n2Cc2ccccc2)C1 (stereo unspecified) |
| 891 | N#Cc1ccc(C(=O)Nc2cnc(N3CCCCCC3)nc2)cc1 |
| 762 | Cc1ccccc1Nc1c(-c2c(F)cccc2Cl)nc2cccc(C)n12 |
| 564 | CCC(=O)N1CCCC(C(=O)N2CCOCC2)C1 (stereo unspecified) |
| 694 | CN(Cc1nc(-c2ccc(N3CCSCC3)nc2)no1)C1CCCCC1 |
| 959 | CCCN(CC1CCOC1)C(=O)Nc1ccc(C)c(Cl)c1 (stereo unspecified) |
| 619 | O=C(c1ccc(=O)n(CCN2CCCC2)c1)N1CCN(c2ccccc2F)CC1 |
| 915 | CCC(C)(C)C(=O)N1CCCN(C2=NS(=O)(=O)C(c3ccc(C)cc3)=C2C)CC1 |
| 1080 | COc1ccccc1Nc1c(-c2ccc(Br)cc2)nc2cnccn12 |
| 979 | CCOC(=O)c1c(NC(=O)C2CCN(S(C)(=O)=O)CC2)sc2ccccc12 |
| 733 | CCc1ccc(NC(=O)N2CCCC(Cn3cnc4cccnc43)C2)cc1 (stereo unspecified) |
| 579 | Cc1cccc2c(C(N)=O)cc(N3CCN(C)CC3)nc12 |
| 764 | O=C(Nc1ccc(F)c(Cl)c1)C1CCN(C(=O)NCc2cccs2)CC1 |
| 724 | O=C(Cn1ccc2sccc2c1=O)N1CCN(c2ccccc2)CC1 |
| 759 | CCCCN(C)c1ccc(NC(=O)Cc2cccs2)c(C(=O)O)c1 |
| 1190 | Cc1ccc(CNc2ccc(-c3nc(-c4ccc(F)cc4)no3)cn2)o1 |
| 749 | CCn1cc(C)c(C(=O)O)c1CC(=O)NCCC(C)C |
| 824 | Cn1c(=O)c(C(=O)NCc2ccc(F)cc2Cl)nc2cccnc21 |
| 819 | CC1CS(=O)(=O)N(c2ccc(S(=O)(=O)Nc3ccccc3C(F)(F)F)cc2)C1=O (stereo unspecified) |
| 1110 | CCCCc1ccc(Nc2nc(C(=O)OCC)nc3ccccc23)cc1 |
| 975 | COc1ccc(OC)c(-c2cn3ccn(-c4cc(C)cc(C)c4)c(=O)c3n2)c1 |

| RP-LC retention time [s] | Compound |
| --- | --- |
| 611 | CN1CCN(C(=O)c2nn(-c3ccc(Cl)cc3)c3c(=O)n(C)cnc23)CC1 |
| 685 | O=C(NC1CC1)c1ccccc1OCC1CCN(C(=O)C2CCCO2)CC1 (stereo unspecified) |
| 913 | CC(=O)c1cccc(N2C(=O)COc3ccc(Br)cc3C2C(=O)NC2CCCC2)c1 (stereo unspecified) |
| 974 | CCc1ccccc1NC(=O)C1CCCN(S(=O)(=O)c2cc(-c3noc(C)n3)cs2)C1 (stereo unspecified) |
| 1020 | Cc1ccc(C)c(N2CCN(C(=O)c3c(C)oc4nc(C)nc(N5CCOCC5)c34)CC2)c1 |
| 836 | Cc1cc(C)cc(C(=O)N2CCCC(C(=O)NC3CCCC3)C2)c1 (stereo unspecified) |
| 650 | COC(=O)c1ccc(C(=O)N(Cc2ccccn2)Cc2ccco2)cc1 |
| 780 | CCOCN(C(=O)Cn1c(CC)nc2ccccc21)c1c(C)cccc1CC |
| 652 | O=C(C1CCN(c2nc3ccc(-c4cccnc4)nc3s2)CC1)N1CCCCC1 |
| 595 | Cc1cc(C)c2c(N(C)C)nc(C(=O)Nc3ccc(N4CCOCC4)cc3)nc2n1 |
| 732 | COc1cc(OC)cc(C(=O)N2C[C@@H]3C[C@H]2C[C@@H]3NC(=O)c2ccccc2)c1 |
| 642 | Cn1nccc1C(=O)N1CCC(c2noc(-c3ccncc3)n2)C1 (stereo unspecified) |
| 646 | Cn1cc(-c2ccncc2)cc1C(=O)NCc1ccccc1Cl |
| 791 | Cc1cc(NC(=O)CC2COc3ccccc3NC2=O)ccc1Br (stereo unspecified) |
| 823 | Cc1ccc2c(c1)N(C(=O)C1CCN(S(=O)(=O)c3cccnc3)CC1)CCO2 |
| 967 | Cc1c(-c2ccc(-c3ccccc3F)cc2)nc2ccc(F)cc2c1C(=O)O |
| 850 | O=C(NC1CC1)c1ccc(OCC2CCN(C(=O)c3ccc(Cl)cc3)CC2)cc1 |
| 581 | O=C(NCc1ccc2c(c1)OCO2)c1cn2c(n1)CCCC2 |
| 1160 | CC(C)n1c(=O)oc2cc(-c3noc(-c4ccccc4F)n3)ccc21 |
| 803 | O=S(=O)(c1cccn2c(SCc3ccccc3F)nnc12)N1CCCC1 |
| 861 | O=C(Cc1ccc(F)cc1)N1CCN(C(=O)c2nnn3c2COC(c2ccc(F)cc2)C3)CC1 (stereo unspecified) |
| 883 | CC(C)NC(=O)c1cc2c(n(-c3ccc(C(F)(F)F)cc3)c1=O)CCCC2=O |

| Compound | RP-LC retention time [s] |
| --- | --- |
| CCNC(=O)[C@H]1O[C@@H](n2cnc3c(N)ncnc32)C(O)[C@H]1O (stereo partly specified) | 555 |
| CN1C2CCC1CC(OC(=O)[C@H](CO)c1ccccc1)C2 (stereo partly specified) | 667 |
| O=C(COc1ccccc1F)N1CCN(Cc2csc(-c3ccccc3)n2)CC1 | 606 |
